Strand notation (5' to 3'): a small letter for the sugar, then the base; units joined by * are phosphorothioate-linked, units joined directly phosphodiester-linked; [ ] holds rarer units or linkages, { } end groups; capitals alone tell only the bases. d = 2'-deoxy (DNA)
How the values were obtained:
Format in all cases: cell-based, human
CL97 cells = assay: Apoptosis assay (annexin V and PI, flow cytometry); conditions: 100 nM, 48 h
Protocol: (§1) H1975 or CL97 was seeded onto 10-cm dish and cultured overnight. Then, cells were separately treated with 100 nM DzControl or DzT790M-1 with lipofectamine 2000 (Invitrogen). After 48 h, cells were collected, double stained by annexin V and PI, and analyzed by flow cytometry following the protocol of Dead cell apoptosis kit from manufacturer (Invitrogen).

H1975 cells = assay: Apoptosis assay (annexin V and PI, flow cytometry); conditions: 100 nM, 48 h
Protocol: as §1

wild-type EGFR = assay: Western immunoblotting of EGFR expression and downstream signaling in wild-type EGFR cell lines; conditions: A549 and CL1-5 cells, 100 nM
Protocol: A549, CL1-5, H1975, or CL97 was seeded onto 6-well at 3×10^5 cells/well and cultured overnight. Then, cells were separately treated with 100 nM DzControl or DzT790M-1 with lipofectamine 2000 (Invitrogen). The transfected A549 and CL1-5 cells were serum-starved for 24 h and treated with 100 ng/ml of EGF at 37° C. for 15 min. 72 h after transfection, cell were collected for analysis. Cells were washed twice by ice-cold PBS and then total protein was extracted by RIPA buffer with protease inhibitor (Roche). 50 μg of total protein from the supernatants were boiled for 5 min at 95° C. The samples were resolved on 10% SDS-PAGE gel and transferred onto nitrocellulose membranes. EGFR expression and downstream signaling were detected by using primary antibodies specific to human pEGFR(Y1068) (Cell signaling), tEGFR (Santa Cruz), pSTAT3 (Y705) (Cell signaling), tSTAT3 (Cell signaling), pAKT (5473)(Cell signaling), tAKT (Santa Cruz), pERK (T202/Y204) (Cell signaling), tERK (Santa Cruz), and cleaved PARP (Cell signaling) at 1:1000 dilution and β-actin (Santa Cruz) at 1:10000 dilution, respectively. Secondary antibodies against rabbit IgG or mouse IgG was used at 1:5000 dilution. Protein bands on membrane were visualized by exposure to the chemiluminescence substrate.
EGFR belongs to receptor tyrosine kinases. The binding of its extracellular ligands triggers receptor dimerization, tyrosine residues phosphorylation, and downstream signaling activation including signal transducer and activator of transcription 3 (STAT3), Akt, extracellular signal regulated kinases (ERK), and others. To examine the effects of DzT790M on protein expression level of EGFR and its downstream signaling, western immunoblotting was performed on DzT790M transfected cells. A549, CL1-5, H1975, or CL97 was seeded onto 6-well at 3×10^5 cells/well and cultured overnight. Then, cells were separately treated with 100 nM DzControl or DzT790M-1 with lipofectamine 2000 (Invitrogen). The transfected A549 and CL1-5 cells were serum-starved for 24 h and treated with 100 ng/ml of EGF at 37° C. for 15 min. 72 h after transfection, cell were collected for analysis. Cells were washed twice by ice-cold PBS and then total protein was extracted by RIPA buffer with protease inhibitor (Roche). […] Also, activation of downstream STAT3, AKT, and ERK signaling after EGF treatment were not inhibited by DzT790M-1 or DzT790M-2 transfection.
CL1-5 (EGFR wild-type) or H1975 (EGFR T790M) were seeded onto 6-well at 3×10^5 cells/well and cultured overnight. […] The transfected CL1-5 cells were serum-starved for 24 h and treated with 100 ng/ml of EGF at 37° C. for 15 min. 72 h after transfection, cells were collected for western blotting analysis following the above mentioned procedure. […]

wild-type EGFR mRNA = assay: Quantitative real-time PCR of EGFR mRNA knockdown; conditions: A549 cells; 50, 100, or 150 nM; 48 h
Protocol: A549, CL1-5, H1975, or CL97 was seeded onto 6-well at 3×10^5 cells/well and cultured overnight. Then, cells were separately treated with 100 nM DzControl or DzT790M-1 with lipofectamine 2000 (Invitrogen). After 48 h, total mRNA were extracted from DNAzyme-treated cells by Mestrisol following manufacturer's protocol. cDNA were synthesized by using RT III kit with random hexamers as primers (Invitrogen). The PCR primers were synthesized by Genomics BioSci & Tech (Taipei, Taiwan). The sequences of PCR primers are listed as follows: […]
The parameters for PCR were: 95° C. for 10 min, then 25 cycles of PCR at 95° C. for 30 s, 60° C. for 30 s, and 72° C. for 60 s. 3% agarose gels were used for electrophoresis of PCR products. The intensity of bands were quantified by Image J. Quantitative RT-PCR was performed on 40 ng total mRNA with the LightCycler 480 system (Roche). The PCR mix contained 5 μl of 2× Probe Master mix, 100 nM of UPL probe (Roche Diagnostics, Penzberg, Germany), 200 nM of forward primer and reverse primer, 0.1 ul RNAseout (Invitrogen), and 0.025 ul RTIII enzyme (Invitrogen) in a total volume of 10 μl. PCR parameters were as follows: 50° C. for 40 min, then 45 cycles of PCR at 95° C. for 10 s, 60° C. for 10 s, and 72° C. for 2 s. Data were analyzed by LC480 software (Roche Diagnostics, Penzberg, Germany). The relative amount of EGFR mRNA was normalized to ACTB mRNA. The sequences of PCR primers are as follows: […]
To examine the allele selectivity of DzT790M-1, EGFR mRNA knockdown efficiency was detected in two cell lines harboring wild-type EGFR (A549, CL1-5) and two cell lines containing EGFR T790M mutation (H1975, CL97). A549, CL1-5, H1975, or CL97 was seeded onto 6-well at 3×10^5 cells/well and cultured overnight. […]
Then, A549 and PC9 cells were separately treated with 50, 100, or 150 nM control DNAzyme or DzEGFR—ΔE746-A750 with Lipofectamine 2000 for 48 h. […] Quantitative RT-PCR was performed on 40 ng total mRNA with the LightCycler 480 system (Roche). […] Data were analyzed by LC480 software (Roche Diagnostics). […]

[1] = tested on: EGFR E746-A750 deletion mRNA; assay: Quantitative RT-PCR of EGFR mRNA in PC9 cells; conditions: 50, 100, or 150 nM, 48 h, DzControl-treated group as 100% expression
Protocol: Then, A549 and PC9 cells were separately treated with 50, 100, or 150 nM control DNAzyme or DzEGFR—ΔE746-A750 with Lipofectamine 2000 for 48 h. A549 and H1975 cells were separately treated with 100 nM control DNAzyme or different DzL858Rs with Lipofectamine 2000 for 48 h. RNA purification was done by conventional TRIzol® (Invitrogen Corp., Grand Island, N.Y.) method following manufacturer's protocol. Quantitative RT-PCR was performed on 40 ng total mRNA with the LightCycler 480 system (Roche). The PCR mix contained 5 μl of 2× ProbeMaster mix, 100 nM of UPL probe (Roche Diagnostics, Penzberg, Germany) and 200 nM of primer (each) in a total volume of 10 μl. The PCR conditions were 95° C. for 10 min, followed by 60 cycles at 95° C. for 10 s, 60° C. for 10 s, and 72° C. for 2 s. Data were analyzed by LC480 software (Roche Diagnostics). The relative amount of EGFR mRNA was normalized to ACTB mRNA. The sequences of PCR primers are as follows: […]

[2] = tested on: A549 cells (wild type EGFR); assay: Cell proliferation (MTT); conditions: 150 nM of DNAzyme, 48 h
Protocol: (§2) Then, cells were separately treated with 50, 100, or 150 nM control DNAzyme or DzEGFR—ΔE746-A750 with Lipofectamine 2000 for 48 h.

[3] = tested on: PC9 cells (E746-A750 deletion EGFR); assay: Cell proliferation (MTT); conditions: 48 h, DzControl-treated group as 0% death
Protocol: as §2

DzControl: control DNAzyme not complementary to any mRNA in human cells: CATCGGAGGCTAGCTACAACGAGACAGCTG (DNA dC*dAdTdCdGdGdAdGdGdCdTdAdGdCdTdAdCdAdAdCdGdAdGdAdCdAdGdCdT*dG; further chemistry not fully specified) [reference compound]
percentage of apoptotic cells in whole cell population (CL97 cells): 5.2%
percentage of dead cells in whole cell population (CL97 cells): 17%
apoptotic cells (H1975 cells): 3.6%
dead cells (annexin V and PI double positive) (H1975 cells): 12.4%

DzT790M-2: 10-23 DNAzyme against EGFR T790M mRNA, arms 8/8: GAGCTGCAGGCTAGCTACAACGAGATGAGCT (DNA, backbone and methylation of C not given here)
activation of downstream STAT3, AKT, and ERK signaling after EGF treatment (wild-type EGFR; 100 ng/ml EGF 15 min): not inhibited
protein level of EGFR compared to DzControl group (wild-type EGFR; 72 h after transfection): did not decreased

DzEGFR—ΔE746-A750: DNAzyme against EGFR E746-A750 deletion: GGAGATGTGTCAGCTGACTCGAATGATAGCGAC (DNA, backbone and methylation of C not given here)
binding and action on wild type EGFR (wild-type EGFR mRNA): did not bind and act
mutant EGFR expression [1]: suppressed
viability of A549 cells affected [2]: 20%
death of PC9 cells [3]: 60%
